We go through one molecule from patent US7601686B2, “Hepatitis C virus inhibitors” (Bristol-Myers Squibb Company, priority 2005, dated 2009).

Bounds are passed on as bounds.

What all share (format): biochemical
The target in assay [1] is T1, porcine pancreatic elastase (PPE) (Sus scrofa, UniProt P00772).
T1 construct: purchased Sigma
Put plainly: Specificity assay, porcine pancreatic elastase. Particulars: 2 h enzyme-inhibitor pre-incubation; read-out: PPE activity in the specificity assays. The method, then: (§1) The specificities of compounds of the present disclosure were determined against a variety of serine proteases: human neutrophil elastase (HNE), porcine pancreatic elastase (PPE) and human pancreatic chymotrypsin and one cysteine protease: human liver cathepsin B. In all cases a 96-well plate format protocol using colorimetric p-nitroaniline (pNA) substrate specific for each enzyme was used as described previously (PCT Patent Application No. WO 00/09543) with some modifications to the serine protease assays. All enzymes were purchased from Sigma while the substrates were from Bachem.
(§2) Each assay included a 2 h enzyme-inhibitor pre-incubation at room temperature followed by addition of substrate and hydrolysis to ˜30% conversion as measured on a Spectramax Pro microplate reader. Compound concentrations varied from 100 to 0.4 μM depending on their potency.
(§3) The final conditions for each assay were the same as those described in WO 03/099274, page 623.
(§4) The percentage of inhibition was calculated using the formula: [1−((UVinh−UVblank)/(UVctl−UVblank))]×100
(§5) A non-linear curve fit was applied to the inhibition-concentration data, and the 50% effective concentration (IC50) was calculated by the use of Excel XLfit software.

The target of assay [2] is T2, human liver cathepsin B (Homo sapiens, UniProt P07858).
T2 construct: purchased Sigma; host or cells: human liver
Put plainly: Specificity assay, cathepsin B. Particulars: 2 h enzyme-inhibitor pre-incubation; read-out: Cathepsin B activity in the specificity assays. The method, then:
as §1, §2, §3, §4, §5

Assay [3] has as its target T3, HCV NS3/4A protease complex, H77 strain (Hepatitis C virus genotype 1a, UniProt P27958, C1454S/C1711G).
T3 construct: recombinant HCV NS3/4A protease complex (amino acids 1027 to 1711) for these strains; inferred from pET21b vector and Ni-NTA purification; made in house; host or cells: Escherichia coli BL21 (DE3), pET21b
Put plainly: FRET peptide assay to monitor HCV NS3/4A proteolytic activity (H77 strain). The source says:
Generation of Recombinant HCV NS3/4A Protease Complex
HCV NS3 protease complexes, derived from the BMS strain, H77 strain or J4L6S strain, were generated, as described below. These purified recombinant proteins were generated for use in a homogeneous assay (see below) to provide an indication of how effective compounds of the present disclosure would be in inhibiting HCV NS3 proteolytic activity.
Serum from an HCV-infected patient was obtained from Dr. T. Wright, San Francisco Hospital. An engineered full-length cDNA (compliment deoxyribonucleic acid) template of the HCV genome (BMS strain) was constructed from DNA fragments obtained by reverse transcription-PCR (RT-PCR) of serum RNA (ribonucleic acid) and using primers selected on the basis of homology between other genotype 1a strains. From the determination of the entire genome sequence, a genotype 1a was assigned to the HCV isolate according to the classification of Simmonds et al. (See P Simmonds, K A Rose, S Graham, S W Chan, F McOmish, B C Dow, E A Follett, P L Yap and H Marsden, J. Clin. Microbiol., 31(6), 1493-1503 (1993)). […]

T3 sequence (P27958 1027-1711 C1454S/C1711G, one chain of several): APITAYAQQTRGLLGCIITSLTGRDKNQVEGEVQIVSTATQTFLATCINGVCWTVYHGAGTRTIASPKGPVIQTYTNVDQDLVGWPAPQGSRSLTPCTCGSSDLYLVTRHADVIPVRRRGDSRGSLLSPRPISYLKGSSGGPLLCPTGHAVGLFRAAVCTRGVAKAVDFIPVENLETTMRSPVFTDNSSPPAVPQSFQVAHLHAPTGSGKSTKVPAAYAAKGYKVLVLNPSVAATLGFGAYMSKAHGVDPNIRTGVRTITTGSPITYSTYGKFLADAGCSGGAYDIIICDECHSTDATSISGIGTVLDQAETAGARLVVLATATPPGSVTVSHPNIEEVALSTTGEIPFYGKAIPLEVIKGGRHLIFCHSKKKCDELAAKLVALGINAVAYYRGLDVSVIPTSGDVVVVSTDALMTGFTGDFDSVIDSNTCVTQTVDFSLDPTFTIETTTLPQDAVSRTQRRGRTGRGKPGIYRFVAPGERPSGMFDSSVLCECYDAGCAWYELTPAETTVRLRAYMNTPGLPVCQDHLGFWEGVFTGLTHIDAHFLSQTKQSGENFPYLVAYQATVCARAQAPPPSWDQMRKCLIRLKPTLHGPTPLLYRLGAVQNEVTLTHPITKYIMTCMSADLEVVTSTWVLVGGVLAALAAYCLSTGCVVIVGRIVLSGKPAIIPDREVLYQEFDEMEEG
T1 sequence (P00772 27-266): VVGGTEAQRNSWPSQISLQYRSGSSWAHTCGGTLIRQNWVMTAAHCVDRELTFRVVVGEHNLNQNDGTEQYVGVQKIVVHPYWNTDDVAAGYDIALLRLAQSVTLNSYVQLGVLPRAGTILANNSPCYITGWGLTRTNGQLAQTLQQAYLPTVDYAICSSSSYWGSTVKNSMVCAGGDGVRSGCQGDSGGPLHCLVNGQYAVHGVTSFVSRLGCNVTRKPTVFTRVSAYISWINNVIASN

Turning to `C=CC1CC1(NC(=O)[C@@H]1C[C@@H](NC(=O)c2cc(-c3ccccc3)nc3ccccc23)CN1C(=O)[C@@H](NC(=O)CC1CC1)C(C)(C)C)C(=O)NS(=O)(=O)C1CC1` (stereo partly drawn) [Compound 9], the IC50 in assay [1] is > 100 µM; in assay [2], > 100 µM; in assay [3] it was 0.041 µM.
